{"source": "patent US9445596B2", "about": "“Small molecule compounds for the control of nematodes” (California Institute of Technology, priority 2011, dated 2016)", "key": {"ASI sensory neurons": {"tested_on": "ASI sensory neurons", "conditions": "McGrath et al., Nature 2011; cited from earlier work"}, "[1]": {"tested_on": "C. elegans hermaphrodites", "experiment": "Measurement of locomotory parameters (automated worm tracking)", "type": "in vivo", "protocol": "Reversal frequency and velocity were measured using an automated worm-tracking system (Pungaliya et al., PNAS 106:7708-13 (2009); Srinivasan et al., Nature 454:1115-18 (2008), which are hereby incorporated by reference in their entirety)."}, "[2]": {"tested_on": "C. elegans hermaphrodites", "experiment": "Quadrant chemotaxis assay", "type": "in vivo", "conditions": "for chemotaxis of hermaphrodites: 1 pM, all tested strains", "protocol": "Chemotaxis to both non-indole and indole ascarosides was assessed on 10 cm four-quadrant petri plates (Wicks et al., Dev. Biol. 221:295-307 (2000), which is hereby incorporated by reference in its entirety). Each quadrant was separated from adjacent ones by plastic spacers (FIG. 1B). Pairs of opposite quadrants were filled with nematode growth medium (NGM) agar containing either indole ascarosides or non-indole ascarosides at different concentrations. Animals were washed gently in a S-basal buffer, placed in the center of a four-quadrant plate with ascarosides in alternating quadrants, and scored after 15 minutes and 30 minutes. A chemotaxis index was calculated as: (the number of animals on ascaroside quadrants minus the number of animals on buffer quadrants)/(total number of animals).\nChemotaxis to hbas#3 was assessed on 10 cm four-quadrant petri plates (Wicks et al., Dev. Biol. 221:295-307 (2000), which is hereby incorporated by reference in its entirety). Each quadrant was separated from adjacent ones by plastic spacers. Pairs of opposite quadrants were filled with nematode growth medium (NGM) agar containing different concentrations of hbas#3. Animals were washed gently in an S-basal buffer and placed in the center of a four-quadrant plate with ascarosides in alternating quadrants, and scored after 15 minutes and 30 minutes. A chemotaxis index was calculated as: (the number of animals on ascaroside quadrants minus the number of animals on buffer quadrants)/(total number of animals)."}, "ASK neurons": {"tested_on": "ASK neurons", "experiment": "Calcium imaging (G-CaMP), ASK neurons", "type": "in vivo, C. elegans", "conditions": "1 pM to 1 μM", "source_text": "(§1) Transgenic lines that express the genetically encoded Ca^2+ sensor in ASK (kyEx2866) and AIA (kyEx2916) (Macosko et al., Nature 458:1171-75 (2009), which is hereby incorporated by reference in its entirety) were used for calcium imaging. Young adults or adult worms were inserted into an “Olfactory chip” microfluidic device (Chronis et al., Nat. Methods 4:727-31 (2007), which is hereby incorporated by reference in its entirety). Dilutions of icas#3 were done with S-basal buffer (with no cholesterol). As stock solutions of icas#3 contained small amounts of ethanol, equivalent amounts of ethanol were added to the S-basal control flow.\n(§2) Imaging was conducted using an inverted Zeiss microscope equipped with an Andor camera. Exposure time for image acquisition was 300 milliseconds. Before imaging the ASK neuron, the worm was exposed to blue light for 3 minutes as ASK responds to the blue light itself. […] Movies were analyzed using custom-made Matlab scripts. The first peak of fluorescence immediately after exposure to buffer or icas#3 was chosen for calculating the average change in fluorescence upon exposure to either buffer or icas#3. The value for this maximum was then subtracted from the mean fluorescence during the 5 seconds before the delivery of icas#3/buffer (corresponding to the region between 5 to 10 seconds in FIG. 2D)."}, "[3]": {"tested_on": "C. elegans hermaphrodites and males", "experiment": "Spot attraction assay", "type": "in vivo", "protocol": "The spot attraction assays were conducted according to a previously reported method (Pungaliya et al., PNAS 106:7708-13 (2009); Srinivasan et al., Nature 454:1115-18 (2008), which are hereby incorporated by reference in their entirety). For both C. elegans hermaphrodites and males, 50-60 worms were harvested daily at the fourth larval stage (L4) and stored segregatedly by sex at 20° C. overnight, to be used as young adults the following day. For the competition experiments, two conditions were used: 120 nM ascr#3 and 10 nM icas#3 (Condition 1), or 12 μM ascr#3 and 1 μM icas#3 (Condition 2) in water containing 10% ethanol. Aliquots were stored at −20° C. in 20 μL tubes. 10% ethanol in water was used as control.\nAttraction assays with hbas#3 were conducted as previously reported (Srinivasan et al., Nature 454:1115-18 (2008); Pungaliya et al., Proc. Natl. Acad. Sci. U.S.A. 106:7708-13 (2009), which are hereby incorporated by reference in their entirety). For the attraction assays, 50-60 hermaphrodite worms were harvested daily at the early fourth larval stage (L4) and stored at 20° C. overnight to be used as young adults the following day. Hbas#3 was dissolved in water containing 10% ethanol. Aliquots were stored at −20° C. in 20 μL tubes. 10% ethanol in water was used as control."}, "AIA interneurons": {"tested_on": "AIA interneurons", "experiment": "Calcium imaging (G-CaMP), AIA interneurons", "type": "in vivo, C. elegans", "source_text": "as §1, §2"}, "C. elegans": {"tested_on": "C. elegans", "experiment": "Aggregation assay", "type": "in vivo", "protocol": "Aggregation behavior of worms was measured using assays reported in de Bono & Bargmann, Cell 94:679-89 (1998), which is hereby incorporated by reference in its entirety. Aggregation assays were conducted on standard NGM plates. Plates containing indole ascarosides were made by adding the indole ascaroside stock solution to the NGM media before they were poured onto the plates. These plates were dried at room temperature for 2 to 3 days. Control plates were treated similarly, except that ethanol solutions instead of icas solutions were added to the plates, corresponding to the amount of ethanol introduced via the icas solutions. Final ethanol concentrations of the plates were below 0.1% for all conditions. After drying, both control plates and plates containing indole ascarosides were seeded with 150 μl of an overnight culture of E. coli OP50 using a micropipette, and were allowed to dry for 2 days at room temperature. For “low worm density” experiments, 20 worms were placed onto the lawn and left at 20° C. for 3 hours. For “high worm density” experiments, approximately 120 worms were placed onto the bacterial lawn and left at 20° C. for 3 hours. Aggregation behavior was quantified as the number of animals that were in touch with two or more animals at greater than 50% of their body length."}, "[4]": {"conditions": "ASK-ablated hermaphrodites on icas#3 plates"}, "[5]": {"conditions": "social wild-type strains (RC301 and CB4856) and npr-1(ad609) hermaphrodites"}}, "note": "“Also recorded” adds a separate entry of the source.", "data": [{"smiles": "C[C@@H]1O[C@@H](OCCC(=O)O)[C@H](O)C[C@H]1O", "note": "[ascr#5]", "values": [{"measurement": "calcium transients in the ASI sensory neurons", "setting": "ASI sensory neurons", "value": "does not elicit calcium transients"}]}, {"smiles": "C[C@H](CCCC/C=C/C(=O)O)O[C@@H]1O[C@@H](C)[C@H](OC(=O)c2c[nH]c3ccccc23)C[C@H]1O", "note": "[icas#3]", "values": [{"measurement": "worm velocity", "setting": "[1]; 1-10 pM", "value": "not significantly reduced"}, {"measurement": "forward velocity of ASK-ablated hermaphrodites", "setting": "[1]; [4]", "value": "do not display reduced forward velocity"}, {"measurement": "reversal frequency of ASK-ablated hermaphrodites", "setting": "[1]; [4]", "value": "does not increase; also recorded: neither increased reversal frequency"}, {"measurement": "mean stopped duration", "setting": "[1]; aggregation-inducing concentrations, N2 hermaphrodites", "value": "strongly increase mean stopped duration"}, {"measurement": "chemotaxis of hermaphrodites", "setting": "[2]; after 15 minutes", "value": "attracted"}, {"measurement": "chemotaxis of hermaphrodites", "setting": "[2]; after 30 minutes", "value": "attracted"}, {"measurement": "lowest concentration resulting in strong attraction of hermaphrodites (as low as)", "setting": "[2]; both in the presence and absence of food", "value": 1, "unit": "pM"}, {"measurement": "response of daf-22 hermaphrodites", "setting": "[2]; daf-22 hermaphrodites", "value": "as strongly as N2 worms"}, {"measurement": "attraction of social hermaphrodites", "setting": "[2]; [5]", "value": "strongly attracted"}, {"measurement": "Ca^2+ transients in ASK neurons", "setting": "ASK neurons", "value": "no detection of Ca^2+ transients"}, {"measurement": "attraction in the spot attraction assay", "setting": "[3]; 1 pmol, N2 hermaphrodites and him-5 males", "value": "attractive to both C. elegans sexes"}, {"measurement": "attraction after ablation of both ASI and ASK neurons", "setting": "[3]; ASI- and ASK-ablated hermaphrodites", "value": "did not result in a more significant loss of attraction compared to ASK ablation alone"}, {"measurement": "attraction after ablation of the ASI neurons", "setting": "[3]; ASI-ablated hermaphrodites", "value": "no significant effect"}, {"measurement": "attraction of AIA-deficient worms", "setting": "[3]; MEC-4 expressed in AIA interneuron", "value": "did not show any attraction"}, {"measurement": "attraction of daf-22 hermaphrodites", "setting": "[3]; daf-22 hermaphrodites", "value": "attracted; also recorded: as strongly as N2 worms"}, {"measurement": "attraction after ablation of ASK sensory neurons", "setting": "[3]; hermaphrodites lacking ASK neurons", "value": "near complete loss of attraction"}, {"measurement": "attraction in the spot attraction assay", "setting": "[3]; high concentrations, males and hermaphrodites", "value": "attracted both males and hermaphrodites"}, {"measurement": "attraction of hermaphrodites", "setting": "[3]; low concentrations, N2 hermaphrodites", "value": "strongly attractive to hermaphrodites"}, {"measurement": "attraction of males", "setting": "[3]; low concentrations, males", "value": "no longer attracted"}, {"measurement": "attraction of social hermaphrodites", "setting": "[3]; [5]", "value": "attracted; also recorded: strongly attracted"}, {"measurement": "attraction after ablation of the RMG interneuron", "setting": "[3]; wild-type (N2) and ncs-1::gfp hermaphrodites, RMG ablated", "value": "does not affect attraction; also recorded: did not affect icas#3 response"}, {"measurement": "G-CaMP fluorescence signals in AIA interneurons", "setting": "AIA interneurons; 1 μM", "value": "induces G-CaMP fluorescence signals"}, {"measurement": "G-CaMP fluorescence in the AIA neurons", "setting": "AIA interneurons; in vivo", "value": "significantly increased G-CaMP fluorescence"}, {"measurement": "increase in aggregation of N2 hermaphrodites", "setting": "C. elegans; high worm density (120 worms per 5 cm plate)", "value": "≤ 3", "unit": "fold"}, {"measurement": "average clump size", "setting": "C. elegans; icas#3-mediated aggregation", "value": "3-5 worms"}, {"measurement": "concentrations at which active as hermaphrodite attractants and aggregation signals", "setting": "C. elegans; in vivo", "value": "femtomolar to picomolar"}, {"measurement": "concentrations that induce maximal aggregation", "setting": "C. elegans; in vivo", "value": "1 to 10", "unit": "pM"}, {"measurement": "lowest concentration with very strong increase in aggregation (as low as)", "setting": "C. elegans; low worm density (20 worms per 5 cm plate), solitary and social hermaphrodites", "value": 10, "unit": "fM"}, {"measurement": "increase in aggregation of N2 hermaphrodites", "setting": "C. elegans; low worm density, 1 pM", "value": "≤ 4", "unit": "fold"}, {"measurement": "aggregation of daf-22 hermaphrodites compared with N2", "setting": "C. elegans; low worm density, 1 pM and 10 pM", "value": "less aggregation than N2 worms at 1 pM icas#3 but not at 10 pM icas#3"}, {"measurement": "aggregation of hermaphrodites lacking the ASK neurons", "setting": "C. elegans; low worm density, any of the tested concentrations", "value": "do not aggregate; also recorded: did not aggregate"}, {"measurement": "aggregation of npr-1(ad609) hermaphrodites", "setting": "C. elegans; low worm density, over the entire tested concentration range, without a drop off at higher concentrations", "value": "increased aggregation"}, {"measurement": "aggregation at 1 nM", "setting": "C. elegans; low worm density, social strain CB4856, 1 nM", "value": "not significantly different from the control"}, {"measurement": "concentration of maximal aggregation", "setting": "C. elegans; low worm density, social strain CB4856, bell-shaped response curve", "value": 1, "unit": "pM"}, {"measurement": "aggregation of him-5 males", "setting": "C. elegans; plates containing 100 fM or 100 pM", "value": "significantly increased"}]}]}
